This note sets out measurements from patent publication US8642350B2, “Sensor material and uses thereof to simultaneously sense two analytes: oxygen and pH or acidic/basic gaseous ions” (University College Cork, National University of Ireland, …, priority 2010, dated 2014).

Format in all cases: physicochemical
Series [1] can be described thus: Absorption and emission spectra of thin film sensor coatings. As to conditions: solid state sensor form. The source says:
On the other hand, protonation of the peripheral group (Schiff base) leads to the formation of a delocalised carbocation represented by 10 resonant structures. This process is accompanied by major spectral changes: a shift in absorbance peak from 398 nm to 443 nm and the disappearance of the porphyrin type of electronic spectra and phosphorescence. The process is reversible and potentially allows for sensing of the protonation or pH changes by means of absorbance or phosphorescence measurements.
(§1) This cocktail of sensor components was applied in 2 μl aliquots on a solid support (e.g. Mylar® foil or microporous polymeric membrane) and left to evaporate all the solvents. […] Other sensor formulations can also be used, such formulations are known to specialists in the area.
(§2) Thin film (˜5 μm) sensor coatings produced according to Table 1 were studied for their photophysical, O2 and pH sensing properties.

A short description of series [2]: pH calibration (pKa) of solid state sensors by absorbance / phosphorescence intensity. The conditions noted are these: for pH range covered by the sensor: air-saturated buffer; for pKa value (21% O2) 0 mM NaCl / pKa value (21% O2) 500 mM NaCl: solid state sensor form. How it is done: (§3) FIG. 2: Oxygen calibration in the phosphorescence lifetime (A) and Stern-Volmer (right) scales for the Pt-OEP-CH═N—CH3 (♦) and Pd-OEP-CH═N—CH3 (▪) sensors, measured in sodium acetate, pH 6 at 24° C. (B). pH calibration of Pt-OEP-CH═N—CH3 (absorbance) at certain pH steps, the two black bars show the bandwidth of commercial LEDs at 400 nm and 450 nm (C) and of Pt-OEP-CH═N—CH3 (♦) and Pd-OEP-CH═N—CH3 (▪) at 24° C. and 30° C. respectively (emission intensity) (D), measured in sodium acetate.
as §1, §2
With respect to their pH sensitivity, the two sensors produced the anticipated spectral responses which occurred in the useful range of pH. […] However, the decrease in phosphorescence intensity signal occurred without any significant changes in the phosphorescence lifetime.

Series [3] in a line: Oxygen calibration by phosphorescence lifetime (quenching by dissolved O2). The conditions noted are these: for quenching by dissolved O2: sensors in aqueous solutions, 0-21 kPa O2; for Lifetime 0% O2 / Lifetime 21% O2: solid state sensor form; for Lifetime 0% O2: 0% O2, 24° C.; for Lifetime 21% O2: 21% O2, 24° C. How it is done: as §3, §1, §2
The unquenched phosphorescence lifetime of 70 μs in O2-free buffer (at 24° C.) was close to that of the other Pt-porphyrins and O2 sensors on their basis. In air-saturated solution (20.9 kPa or 250 μM) the lifetime was reduced by approximately 60%. […] Full O2 calibrations of the two sensors show a pronounced non-linearity of Stern-Volmer plots (in FIG. 2B).

In the case of `CN=CC1=C2N=C(C=c3c(C)c(CCC(=O)OC)c4[n]3[Pd][n]3c(c(C)c(CCC(=O)OC)c31)C=C1N=C(C=4)C(C)=C1CCC(=O)OC)C(CCC(=O)OC)=C2C` [Pd—CPE—CH═NMe], the Emission in series [1] stood at 673 nm. Further, the Absorption in series [1] (pH 2.0) is given as 443 (pH 2.0) nm. Besides, the Absorption in series [1] (pH 8.0) is on record as 398 (pH 8.0) nm. In series [2] (24° C.), the “pH range covered by the sensor” value is listed as 6.5-8.0, the “pKa value (21% O2) 0 mM NaCl” value is recorded as 5.9 (24° C.) and the “pKa value (21% O2) 500 mM NaCl” value is 5.5 (24° C.). Further, the “pH range the dual-analyte sensor is well suited for” value in series [2] (physiological range) is reported as 6-8. Also, in series [2] (30° C.), the “pKa value (21% O2) 0 mM NaCl” value is 6.9 (30° C.) and the “pKa value (21% O2) 500 mM NaCl” value is listed as 6.5 (30° C.). Further, in series [3] (phosphorescence lifetime modality), the “cross-sensitivity of O2 response to pH” value is listed as “no cross-sensitivity to pH”. For the same compound, the “O2 range the dual-analyte sensor is well suited for” value in series [3] (physiological range) was 0 to 200 µM. Further, in series [3] (sensor, unquenched), the unquenched lifetime came out at 147 µs. In addition, in series [3], the “quenching by dissolved O2” value is on record as “more favorable quenchability”, the “Lifetime 0% O2” value is recorded as 172 (24° C.) μs and the “Lifetime 21% O2” value was 33 (24° C.) μs.

In series [1], `CCC1=C(CC)c2cc3[n-]c(c(C=NC)c4nc(cc5[n-]c(cc1n2)c(CC)c5CC)C(CC)=C4CC)c(CC)c3CC.[Pt+2]` [Pt—OEP—CH═NMe] registered an Emission of 670 nm. In addition, the Absorption in series [1] (pH 2.0) is 443 (pH 2.0) nm. Further, the Absorption in series [1] (pH 8.0) is on record as 398 (pH 8.0) nm. For the same compound, in series [2] (24° C.), the “pH range covered by the sensor” value is given as 5-7 and the “pKa value (21% O2) 0 mM NaCl” value is 4.3 (24° C.). The “pKa more acidic than the Pd-OEP-CH═N—CH3 sensor” value in series [2] (difference between the two sensors) is recorded as about 1 pH unit. In addition, in series [2] (30° C.), the “pKa value (21% O2) 0 mM NaCl” value was 5.9 (30° C.) and the “pKa value (21% O2) 500 mM NaCl” value was 5.5 (30° C.). Further, the “reduction of lifetime in air-saturated solution” value in series [3] (air-saturated solution (20.9 kPa or 250 μM O2)) is listed as “approximately 60%”. The unquenched phosphorescence lifetime in series [3] (sensor in O2-free buffer, 24° C.) was 70 μs. Besides, in series [3], the “quenching by dissolved O2” value was “moderate quenching”, the “Lifetime 0% O2” value is on record as 60 (24° C.) μs and the “Lifetime 21% O2” value is on record as 36 (24° C.) μs.
